Measurements published in US10105357B2, “Indication of antibiotic drugs for preparation of cancer inhibition pharmaceutical composition” (LAUNX BIOMEDICAL CO., LTD., priority 2014, dated 2018).
Structures can show the parent of a compound that is named as a salt. Where two headings read alike, the source gives them in different places.

How the values were obtained:
[1] = test system: HI650 (Lung Adenocarcinoma); experiment: Cell viability analysis, lung cancer HI650; format: cell-based, human; conditions: Homo sapiens, NCI-H1650, 72 h
[2] = test system: A549 (Lung Adenocarcinoma); experiment: Cell viability analysis, lung cancer A549; format: cell-based, human; conditions: Homo sapiens, A549, 72 h
[3] = test system: AGS (Gastric Adenocarcinoma); experiment: Cell viability analysis, gastric cancer AGS; format: cell-based, human; conditions: Homo sapiens, 72 h
[4] = test system: MKN-45 (Gastric Adenocarcinoma); experiment: Cell viability analysis, gastric cancer MKN-45; format: cell-based, human; conditions: Homo sapiens, MKN-45, 72 h
[5] = test system: Hep3B (hepatocellular carcinoma); experiment: Cell viability analysis, hepatic cancer Hep3B; format: cell-based, human; conditions: Homo sapiens, 72 h; Hep3B; repeated experiment; read-out: The results of antibiotic drug inhibiting cancer cell lines (cell viability analysis), Hep3B
[6] = test system: LoVo (Colorectal Adenocarcinoma); experiment: Cell viability analysis, colon cancer LoVo; format: cell-based, human; conditions: Homo sapiens, LoVo, 72 h
[7] = test system: A375 (Amelanotic Melanoma); experiment: Cell viability analysis, skin cancer A375; format: cell-based, human; conditions: Homo sapiens, A-375, 72 h
[8] = test system: BCC (basal cell carcinoma); experiment: Cell viability analysis, skin cancer BCC; format: cell-based, human; conditions: Homo sapiens, 72 h; BCC; repeated experiment; read-out: The results of antibiotic drug inhibiting cancer cell lines (cell viability analysis), BCC
[9] = test system: HeLa (Cervix Adenocarcinoma); experiment: Cell viability analysis, cervical cancer HeLa; format: cell-based, human; conditions: Homo sapiens, HeLa, 72 h, HeLa
[10] = test system: C-33A (Cervical carcinoma); experiment: Cell viability analysis, cervical cancer C-33A; format: cell-based, human; conditions: Homo sapiens, 72 h; C-33A; repeated experiment; read-out: The results of antibiotic drug inhibiting cancer cell lines (cell viability analysis), C-33A
[11] = test system: PC3 (p53−) (Prostate Adenocarcinoma); experiment: Cell viability analysis, prostate cancer PC3; format: cell-based, human; conditions: Homo sapiens, 72 h
[12] = test system: TSGH-8301 (Urinary Bladder Carcinoma); experiment: Cell viability analysis, bladder cancer TSGH-8301; format: cell-based, human; conditions: Homo sapiens, 72 h
T24 = experiment: Cell viability analysis, bladder cancer T24; format: cell-based, human; conditions: Homo sapiens, T-24, 72 h; T24; repeated experiment; read-out: The results of antibiotic drug inhibiting cancer cell lines (cell viability analysis), T24
[13] = test system: MCF7 (Mammary Gland, Adenocarcinoma); experiment: Cell viability analysis, breast cancer MCF7; format: cell-based, human; conditions: Homo sapiens, MCF7, 72 h
[14] = test system: MDA-MB-231 (Mammary Gland, Adenocarcinoma); experiment: Cell viability analysis, breast cancer MDA-MB-231; format: cell-based, human; conditions: Homo sapiens, MDA-MB-231, 72 h; MDA-MB231; repeated experiment; read-out: The results of antibiotic drug inhibiting cancer cell lines (cell viability analysis), MDA-MB231
BxPC-3 = experiment: Cell viability analysis, pancreatic cancer BxPC-3; format: cell-based, human; conditions: Homo sapiens, 72 h; BxPC-3; repeated experiment; read-out: The results of antibiotic drug inhibiting cancer cell lines (cell viability analysis), BxPC-3
AsPC-1 = experiment: Cell viability analysis, pancreatic cancer AsPC-1; format: cell-based, human; conditions: Homo sapiens, ASPC1, 72 h; AsPC-1; repeated experiment; read-out: The results of antibiotic drug inhibiting cancer cell lines (cell viability analysis), AsPC-1
NIH: OVCAR-3 = experiment: Cell viability analysis, ovarian cancer NIH: OVCAR-3; format: cell-based, human; conditions: Homo sapiens, 72 h; NIH-OVCAR-3; repeated experiment; read-out: The results of antibiotic drug inhibiting cancer cell lines (cell viability analysis), NIH-OVCAR-3
TOV-21G = experiment: Cell viability analysis, ovarian cancer TOV-21G; format: cell-based, human; conditions: Homo sapiens, TOV21G, 72 h; TOV-21G; repeated experiment; read-out: The results of antibiotic drug inhibiting cancer cell lines (cell viability analysis), TOV-21G
[15] = test system: SAS (Tongue squamous cell carcinoma); experiment: Cell viability analysis, tongue cancer SAS; format: cell-based, human; conditions: Homo sapiens, 72 h; SAS; repeated experiment; read-out: The results of antibiotic drug inhibiting cancer cell lines (cell viability analysis), SAS
U-2OS = experiment: Cell viability analysis, osteosarcoma U-2OS; format: cell-based, human; conditions: Homo sapiens, 72 h; U2OS; repeated experiment; read-out: The results of antibiotic drug inhibiting cancer cell lines (cell viability analysis), U2OS
[16] = test system: 786-O (Renal adenocarcinoma); experiment: Cell viability analysis, renal cancer 786-O; format: cell-based, human; conditions: Homo sapiens, 786-0, 72 h; 786-O; repeated experiment; read-out: The results of antibiotic drug inhibiting cancer cell lines (cell viability analysis), 786-O
[17] = test system: HL-60 (Acute Promyelocytic Leukemia); experiment: Cell viability analysis, leukemia HL-60; format: cell-based, human; conditions: Homo sapiens, HL-60, 72 h, drug 10 μM, 72 hours, WST-1, OD450 nm; read-out: cell viability (survival rate), HL-60
[18] = test system: HCT116 (p53+) (Colorectal Carcinoma)
[19] = H1650, repeated experiment, read-out: The results of antibiotic drug inhibiting cancer cell lines (cell viability analysis), H1650
[20] = drug 10 μM, 72 hours, WST-1, OD450 nm, read-out: cell viability (survival rate), H1650
[21] = A549, repeated experiment, read-out: The results of antibiotic drug inhibiting cancer cell lines (cell viability analysis), A549
[22] = drug 10 μM, 72 hours, WST-1, OD450 nm, read-out: cell viability (survival rate), A549
[23] = AGS, repeated experiment, read-out: The results of antibiotic drug inhibiting cancer cell lines (cell viability analysis), AGS
[24] = drug 10 μM, 72 hours, WST-1, OD450 nm, read-out: cell viability (survival rate), AGS
[25] = MKN-45, repeated experiment, read-out: The results of antibiotic drug inhibiting cancer cell lines (cell viability analysis), MKN-45
[26] = drug 10 μM, 72 hours, WST-1, OD450 nm, read-out: cell viability (survival rate), MKN-45
[27] = read-out: The results of antibiotic drug inhibiting cancer cell lines (cell viability analysis), LoVo, repeated experiment
[28] = read-out: cell viability (survival rate), LoVo, drug 10 μM, 72 hours, WST-1, OD450 nm
[29] = A375, repeated experiment, read-out: The results of antibiotic drug inhibiting cancer cell lines (cell viability analysis), A375
[30] = drug 10 μM, 72 hours, WST-1, OD450 nm, read-out: cell viability (survival rate), A375
[31] = repeated experiment, read-out: The results of antibiotic drug inhibiting cancer cell lines (cell viability analysis), HeLa
[32] = drug 10 μM, 72 hours, WST-1, OD450 nm, read-out: cell viability (survival rate), HeLa
[33] = PC-3, repeated experiment, read-out: The results of antibiotic drug inhibiting cancer cell lines (cell viability analysis), PC-3
[34] = drug 10 μM, 72 hours, WST-1, OD450 nm, read-out: cell viability (survival rate), PC3
[35] = TSGH-8301, repeated experiment, read-out: The results of antibiotic drug inhibiting cancer cell lines (cell viability analysis), TSGH-8301
[36] = drug 10 μM, 72 hours, WST-1, OD450 nm, read-out: cell viability (survival rate), TSGH
[37] = MCF-7, repeated experiment, read-out: The results of antibiotic drug inhibiting cancer cell lines (cell viability analysis), MCF-7
[38] = drug 10 μM, 72 hours, WST-1, OD450 nm, read-out: cell viability (survival rate), MCF7

SMILES	viability at 10 µM [1, 19] [%]	viability at 10 µM [1, 20] [%]	viability at 10 µM [2, 21] [%]	viability at 10 µM [2, 22] [%]	viability at 10 µM [3, 23] [%]	viability at 10 µM [3, 24] [%]	viability at 10 µM [4, 25] [%]	viability at 10 µM [4, 26] [%]	viability at 10 µM [5] [%]	viability at 10 µM [6, 27] [%]	viability at 10 µM [6, 28] [%]	viability at 10 µM [7, 29] [%]	viability at 10 µM [7, 30] [%]	viability at 10 µM [8] [%]	viability at 10 µM [9, 31] [%]	viability at 10 µM [9, 32] [%]	viability at 10 µM [10] [%]	viability at 10 µM [11, 33] [%]	viability at 10 µM [11, 34] [%]	viability at 10 µM [12, 35] [%]	also measured
CC[C@@H]([C@H](C)O)n1ncn(-c2ccc(N3CCN(c4ccc(OC[C@@H]5CO[C@@](Cn6cncn6)(c6ccc(F)cc6F)C5)cc4)CC3)cc2)c1=O [Posaconazole]	67.5	67	18.1	42.9	65.7	42.7	92.8	52	95.2	62	73.7	47.9	49.8	43.5	49.4	75.8	35.5	52.1	45.3	81.9	viability at 10 µM [12, 36]: 51.3%; viability at 10 µM (T24): 55.4%; viability at 10 µM [13, 37]: 48%; viability at 10 µM [13, 38]: 63.6%; viability at 10 µM [14]: 60.4%; viability at 10 µM (BxPC-3): 42.6%; viability at 10 µM (AsPC-1): 32.2%; viability at 10 µM (NIH: OVCAR-3): 62.3%; viability at 10 µM (TOV-21G): 37.3%; viability at 10 µM [15]: 26.6%; viability at 10 µM (U-2OS): 38.9%; viability at 10 µM [16]: 18.1%; viability at 10 µM [17]: 71.3%; viability [18]: 51.6%
CN(C)CCC=C1c2ccccc2CCc2ccccc21 [Amitriptyline HCl]	111	64.4	73.3	69.3	146	61.5	135	102	124	90.5	96.5	94.3	84.8	113	111	90.6	100	99.4	61.9	157	viability at 10 µM [12, 36]: 133%; viability at 10 µM (T24): 97.5%; viability at 10 µM [13, 37]: 67.7%; viability at 10 µM [13, 38]: 64.8%; viability at 10 µM [14]: 106%; viability at 10 µM (BxPC-3): 67.2%; viability at 10 µM (AsPC-1): 73.1%; viability at 10 µM (NIH: OVCAR-3): 104%; viability at 10 µM (TOV-21G): 118%; viability at 10 µM [15]: 67.5%; viability at 10 µM (U-2OS): 68.5%; viability at 10 µM [16]: 85.5%; viability at 10 µM [17]: 81.4%
CC(C)/N=c1\cc2n(-c3ccc(Cl)cc3)c3ccccc3nc-2cc1Nc1ccc(Cl)cc1 [Clofazimine]	92.2	74.4	87.1	49.5	78.8	64.2	108	53.1	91.6	83.4	68.3	81.2	37.3	72.9	94.3	59.3	111	106	53.2	111	viability at 10 µM [12, 36]: 51.7%; viability at 10 µM (T24): 74.1%; viability at 10 µM [13, 37]: 74.2%; viability at 10 µM [13, 38]: 51.2%; viability at 10 µM [14]: 102%; viability at 10 µM (BxPC-3): 72.2%; viability at 10 µM (AsPC-1): 76.6%; viability at 10 µM (NIH: OVCAR-3): 97.3%; viability at 10 µM (TOV-21G): 65.1%; viability at 10 µM [15]: 75.2%; viability at 10 µM (U-2OS): 80.6%; viability at 10 µM [16]: 82.5%; viability at 10 µM [17]: 85%
